Converted amounts (≈) assume the structure as drawn. Like-named read-outs stand apart in the source and are kept apart here. Each block holds one molecule with its values, some of them ahead of it.
What was measured:
human H4R = molecular target: T1, human H4R (Homo sapiens, UniProt Q9H3N8); assay: [3H]histamine competition binding, membranes of HEK293T cells transiently expressing H4R
T1 construct: expressed in transfected cells; host or cells: HEK293T (transient, PEI); membranes
Procedure: (§1) Both GPCRs were transiently expressed in HEK293T cells.
(§2) Membranes were collected from HEK293T cells transiently transfected with H3R or H4R by PEI method. In brief, 2 million HEK293T cells were seeded into a 10 cm dish one day before transfection. The next day, the cells were transfected with 2.5 μg cDNA encoding H3R (GenBank accession number AF140538) or H4R (GenBank accession number AY136745) supplemented with 2.5 μg empty pcDEF3 [45] plasmid using 20 μg PEI. Two days after transfection, the transfected HEK293T cells were detached using ice-cold PBS, and the membrane pellets were subsequently collected by centrifuging at 1932× g at 4 °C for 10 min.
For competition binding assays, the tested compounds were pre-irradiated to reach the uncaged state. […] After drying for 30 min at 55 °C, the radioactivity remaining on the filters was quantified using a Microbeta Wallac Trilux scintillation counter, following the addition of scintillation liquid with a two-hour delay.
All data are shown as mean ± S.D. from three individual experiments performed in triplicate. Figures were generated and data analyzed by Prism 9. […] In FRET-EPAC assays, the ligand-induced cAMP inhibition was quantified by FRET ratios, dividing the FRET signal at 530 nm by the signal at 480 nm. […]

[1] = Nephelometry (aqueous solubility); assay type: physicochemical; conditions: 50 mM Tris-HCl buffer with 1% DMSO, pH 7.4, aqueous buffer, kinetic from dmso stock, in the dark, read-out: aqueous solubility (limit)
[2] = UV-Vis absorption in Tris-HCl buffer; assay type: physicochemical; conditions: Tris-HCl buffer (50 mM, pH 7.4)
Procedure: Next, the photochemical properties of the caged VUF25657 and VUF25678 were investigated. […] Based on the photochemical stability results in Figure S2, photo characterizations of VUF25657 and VUF25678 were performed under red LED light. Due to the low absorbance of immepip and 4-methylhistamine at 230 and 254 nm, a quantitative analysis method based on mass (MS) detection was employed. First, calibration curves of monitored compounds with the corresponding reference compound of the same molecular weight were built (Figure S3). Then, after illumination, the reference compounds were added to LCMS samples as internal standards. Based on the MS signal areas, the concentrations of caged compounds and parent compounds could be monitored. In Tris-HCl buffer (50 mM, pH 7.4), the absorption maximum (λmax) was determined to be 551 nm for VUF25657 (Figure 1A) and 546 nm for VUF25678 (Figure S4A). […] After 180 s of illumination, the concentration of immepip reached 0.92 μM, amounting to 29% uncaging efficiency. […]
Figure 1 Photo-uncaging followed by UV–Vis (ultraviolet-visible) and LC–MS analysis. (A) VUF25657 (3.2 μM) was illuminated under 560 nm in Tris-HCl buffer (50 mM, pH 7.4)/1% DMSO at room temperature and a UV–Vis spectrum was measured at intervals. […]
measured at intervals; (B) […] (3.2 μM) was illuminated under green LED light in Tris-HCl buffer (50 […]

[3] = Photo-uncaging at 560 nm followed by LC-MS with internal standard; assay type: physicochemical; conditions: VUF25657 3.2 μM in Tris-HCl buffer
Procedure: Next, the photochemical properties of the caged VUF25657 and VUF25678 were investigated. […] Based on the photochemical stability results in Figure S2, photo characterizations of VUF25657 and VUF25678 were performed under red LED light. Due to the low absorbance of immepip and 4-methylhistamine at 230 and 254 nm, a quantitative analysis method based on mass (MS) detection was employed. First, calibration curves of monitored compounds with the corresponding reference compound of the same molecular weight were built (Figure S3). Then, after illumination, the reference compounds were added to LCMS samples as internal standards. Based on the MS signal areas, the concentrations of caged compounds and parent compounds could be monitored. In Tris-HCl buffer (50 mM, pH 7.4), the absorption maximum (λmax) was determined to be 551 nm for VUF25657 (Figure 1A) and 546 nm for VUF25678 (Figure S4A). […] After 180 s of illumination, the concentration of immepip reached 0.92 μM, amounting to 29% uncaging efficiency. Further illumination led to a decreased immepip concentration (for example, 0.53 μM at 20 min). One potential explanation for this could be the reaction of immepip with side products or intermediates formed during the uncaging process.
Figure 1 Photo-uncaging followed by UV–Vis (ultraviolet-visible) and LC–MS analysis. (A) VUF25657 (3.2 μM) was illuminated under 560 nm in Tris-HCl buffer (50 mM, pH 7.4)/1% DMSO at room temperature and a UV–Vis spectrum was measured at intervals. Only the 350–750 nm region is shown; (B) VUF25657 (3.2 μM) was illuminated under green LED light in Tris-HCl buffer (50 mM, pH 7.4)/1% DMSO at 37 °C and LC–MS analysis was performed at different time points using an internal standard.

H3R [4] = molecular target: T2, H3R (Homo sapiens, UniProt Q9Y5N1); assay: [3H]NAMH competition binding, membranes of HEK293T cells transiently expressing H3R; design: expressed in transfected cells; host or cells: HEK293T (transient, PEI); membranes
Procedure: as §1, §2
For competition binding assays, the tested compounds were pre-irradiated to reach the uncaged state. In brief, 0.3 mM stock of photocaged ligand (dissolved in DMSO) was divided into two samples, one of which was subsequently diluted in Tris-HCl buffer (50 mM, pH 7.4) to 3 μM and then irradiated by 560 nm to reach the uncaged state, as confirmed by LC–MS, and the other sample was kept in dark to retain its caged state. The prepared membrane pellets expressing H3R or H4R were resuspended in Tris-HCl buffer (50 mM, pH 7.4) and disrupted by 5 s sonication to make membrane suspension. Next, all the following handling was performed under near-infrared light. […] Following one hour of incubation with continuous shaking at 225 rpm at 25 °C, the reaction was terminated by transferring the mixture to GF/C filter plates that were pre-soaked with a solution containing 0.5% PEI and washed with cold Tris-HCl buffer. After drying for 30 min at 55 °C, the radioactivity remaining on the filters was quantified using a Microbeta Wallac Trilux scintillation counter, following the addition of scintillation liquid with a two-hour delay.
(§3) All data are shown as mean ± S.D. from three individual experiments performed in triplicate. Figures were generated and data analyzed by Prism 9. In radioligand binding assays, the competition binding curves were fitted by ‘one-site—Fit Ki’ to obtain the equilibrium dissociation constants of unlabeled ligands (Ki) by Cheng-Prusoff equation [46]. In FRET-EPAC assays, the ligand-induced cAMP inhibition was quantified by FRET ratios, dividing the FRET signal at 530 nm by the signal at 480 nm. The response was represented as ΔFRET ratios, obtained by the analysis of ‘Fractional difference: (Value—Baseline)/Baseline’. Then the concentration–response curves were fitted using the model: ‘log(agonist) vs. response (three parameters)’ to obtain potency (pEC50).
Figure 2 Displacement binding curves of parent, caged, and uncaged ligands for H3R (A) and H4R (B). […] Caged ligands were either kept in dark or pre-irradiated at 560 nm for 3 min for VUF25657 and 5 min for VUF25678 to achieve the uncaged state. Data shown are mean ± S.D. from three or four independent experiments, each performed in triplicate.

H3R [5] = molecular target: T2, H3R; assay: cAMP inhibition by FRET-EPAC biosensor in HEK293-EPAC cells stably expressing H3R; assay type: cell-based; design: expressed in transfected cells; host or cells: HEK293 cells stably expressing EPAC-cAMP FRET biosensor and H3R; conditions: for EC50: inhibition of cAMP induced by 10 nM isoprenaline, FRET after 20 min
Procedure: H3R primarily couples to Gαi protein, which upon activation causes a decrease in intracellular cAMP levels via the inhibition of adenylate cyclase. Therefore, the HEK-EPAC cells were pre-treated with 10 nM of the beta2 adrenergic receptor (β2AR) agonist isoprenaline before H3R stimulation to enhance the basal intracellular cAMP levels via β2AR-Gαs activation. As anticipated, the H3R selective agonist immepip reduced the isoprenaline-induced cAMP accumulation, as detected by an increased FRET (fluorescence resonance energy transfer) signal in the EPAC (exchange protein directly activated by cAMP) biosensor (Figure 3A).
HEK293T cells (ATTC, CRL-1573) were cultured in DMEM supplemented with 10% FBS and 1% P/S in a humidified incubator at 37 °C with 5% CO2. The HEK293 cell line stably expressing an EPAC-cAMP FRET biosensor was kindly provided by Dr. M. Zimmermann (Interax Biotech, Basal, Switzerland). HEK293-EPAC cells stably co-expressing the H3R (GenBank accession number NM_007232.3) were generated as previously described.
EPAC-H3R cells were seeded into black 96-well plates with 50,000 cells per well one day before the experiment. The next day, the culture medium was replaced with HBSS. Subsequently, 10 nM isoprenaline (dissolved in HBSS supplemented with 20 mM thiourea) was added for 10 min incubation to elevate basal cAMP levels. Fluorescence resonance energy transfer (FRET) measurements were recorded by CLARIOstar plate reader in real-time or at 20 min after ligand stimulation.
as §3
Figure 3 Optical modulation of VUF25657-induced cAMP inhibition in EPAC-H3R cells. Real time modulation of isoprenaline-induced cAMP acumination in HEK-EPAC cells by 1 μM immepip (A). Modulation of isoprenaline-induced cAMP acumination in HEK-EPAC cells by increasing concentrations of VUF25657 (B). HEK-EPAC cells stably expressing H3R were pre-stimulated with 10 nM isoprenaline for 10 min before ligand addition. The FRET signal of the EPAC-sensor was measured after 20 min treatment of indicated ligands. VUF25657 was either kept in dark or pre-irradiated at 560 nm for 3 min to release the BODIPY cage. Data are mean ± S.D. from four independent experiments performed, each in triplicate.

H3R [6] = molecular target: T2, H3R; design: expressed in transfected cells; host or cells: HEK293 cells stably expressing EPAC-cAMP FRET biosensor and H3R; method as in PMID 30249614; conditions: saturation binding of the radioligand to H3R; cited from earlier work
[7] = after 180 s of illumination at 560 nm

T2 sequence (Q9Y5N1 whole entry): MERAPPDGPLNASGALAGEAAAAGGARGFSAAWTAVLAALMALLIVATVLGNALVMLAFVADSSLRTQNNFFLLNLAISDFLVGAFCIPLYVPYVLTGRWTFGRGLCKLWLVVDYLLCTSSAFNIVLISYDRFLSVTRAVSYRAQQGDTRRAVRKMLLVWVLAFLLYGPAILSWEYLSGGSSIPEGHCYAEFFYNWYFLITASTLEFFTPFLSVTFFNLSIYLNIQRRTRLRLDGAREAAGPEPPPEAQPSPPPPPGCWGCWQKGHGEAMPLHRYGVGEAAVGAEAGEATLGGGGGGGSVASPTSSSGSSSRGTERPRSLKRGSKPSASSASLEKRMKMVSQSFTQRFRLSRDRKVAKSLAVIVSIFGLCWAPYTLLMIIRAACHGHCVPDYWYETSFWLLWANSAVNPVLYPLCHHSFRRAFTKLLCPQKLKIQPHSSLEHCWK

SMILES: Cc1[nH]cnc1CCN [4-methylhistamine, 2-(5-methyl-1H-imidazol-4-yl)ethan-1-amine, reference compound]
pKi +560 nm (human H4R; H4R, displacement of 4 nM [3H]histamine, pre-irradiated at 560 nm (5 min for VUF25678)): 7.2 ± 0.1 (3)

solubility [1]: 3.2 µM (≈ 1.68 µg/mL)
absorption maximum (λmax) [2]: 551 nm
concentration of immepip released [3, 7]: 920 nM
uncaging efficiency [3, 7]: 29%
concentration of immepip released ([3]; illumination at 560 nm, at 20 min): 530 nM
melting point: 148.7 to 150.7 °C
Ki (H3R [4]; H3R, displacement of 2 nM [3H]NAMH, compound kept in dark (caged state), read-out: pKi In Dark (converted)): 50.1 nM
decrease in affinity for H3R compared with immepip (H3R [4]; caged state (dark) vs parent immepip): 125 fold
increase in H3R affinity after illumination in comparison to caged state (H3R [4]; illumination at 560 nm vs dark): 12 fold
decrease in potency of cAMP inhibition compared with immepip (H3R [5]; caged state (dark) vs parent immepip, listed as 5 (VUF25657)): > 100 fold
EC50 (H3R [5]; kept in dark, read-out: pEC50 In Dark (converted)): 10 nM
higher potency of cAMP inhibition after irradiation than caged state (H3R [5]; irradiation at 560 nm vs dark): 20 fold
SMILES: CCC1=C(C)C2=C(COC(=O)N3CCC(Cc4c[nH]cn4)CC3)c3c(C)c(CC)c(C)n3[B-](F)(F)[N+]2=C1C [VUF25657, (2,8-Diethyl-5,5-difluoro-1,3,7,9-tetramethyl-5H-4λ^4,5λ^4-dipyrrolo [1,2-c:2′,1′-f][1,3,2]diazaborinin-10-yl)methyl 4-((1H-imidazol-4-yl)methyl)piperidine-1-carboxylate]

reduction in affinity for H4R on caging (human H4R; caged compound vs parent 4-methylhistamine): 10–100 fold
solubility [1]: 3.2 µM (≈ 1.55 µg/mL)
absorption maximum (λmax) [2]: 546 nm
melting point: 108.8 to 116.3 °C
SMILES: CCC1=C(C)C2=C(COC(=O)NCCc3nc[nH]c3C)c3c(C)c(CC)c(C)n3[B-](F)(F)[N+]2=C1C [VUF25678, (2,8-Diethyl-5,5-difluoro-1,3,7,9-tetramethyl-5H-4λ^4,5λ^4-dipyrrolo [1,2-c:2′,1′-f][1,3,2]diazaborinin-10-yl)methyl (2-(5-methyl-1H-imidazol-4-yl)ethyl)carbamate]

SMILES: CNCCc1cnc[nH]1 [[^3H]NAMH, N-α-[methyl-^3H] histamine]
Kd (H3R [6]): 1.37 nM

SMILES: c1nc(CC2CCNCC2)c[nH]1 [immepip, 4-((1H-imidazol-4-yl)methyl)piperidine, reference compound]
pKi In Dark (H3R [4]; H3R, displacement of 2 nM [3H]NAMH, compound kept in dark (caged state)): 9.4 ± 0.2 (4)
pKi +560 nm (H3R [4]; H3R, displacement of 2 nM [3H]NAMH, pre-irradiated at 560 nm (3 min for VUF25657)): 9.4 ± 0.3 (4)
EC50 (H3R [5]; pEC50 +560 nm, pre-irradiated at 560 nm for 3 min): 0.0631 nM
EC50 (H3R [5]; pEC50 In Dark, kept in dark): 0.0316 nM

From article PMC11053687, “Synthesis and Pharmacological Characterization of New Photocaged Agonists for Histamine H3 and H4 Receptors” (Pharmaceuticals, 2024)
